A short description of data set [1]: Irritativeness and feeling of the compound on the user's skin and hair. The note with it: in words.
A short description of data set [2]: Cytotoxic effect on SIRC cells (Giemsa stain, 48 hours). Type of data set: cell-based, rabbit. As to conditions: rabbit, 48 hours culture, 655 nm, read-out: IC50. Here is the method:
(§1) The cytotoxic effect of the compounds according to the present invention was tested in accordance with the following method.
(§2) Four days prior to exposure to a substance to be tested, SIRC cells (established cell line of fibroblasts in the epithelial parenchymal layer of a rabbit eye) were disseminated on a 96-well plate in a concentration of 3×10^3 cells/well to culture them under conditions of 37° C. and 5% CO2.
(§3) The test substance was dissolved in physiological saline to give a concentration of 1 wt. % or 10 wt. %. This solution was diluted with a culture medium. After the thus-obtained test solution was added to the culture solution to conduct culture for 48 hours, the culture solution was washed twice with PBS (pH 7.4) and fixed in methanol to stain with a Giemsa stain. After washing and drying, a mixture of 1N HCl/ethanol (1/9) was added to extract the stained solution, followed by measurement by means of a microplate reader (655 nm). The concentration at which […] was expressed as IC50 (ppm).

The subject of data set [3] is SIRC cells. The data set is described as above. The note with it: 48 hours culture, 655 nm. Type of data set: cell-based, rabbit. Here is the method: as §1, §2, §3

Turning to `CCCCCCCCN(CC(O)CN(CCCCCCCC)C(=O)CCC(=O)[O-])CC(O)CN(CCCCCCCC)C(=O)CCC(=O)[O-].[Na+].[Na+]` (stereo not drawn), the irritativeness result in data set [1] is “low”. With `CCCCCCCCN(CC(=O)O)CC(O)CN(CCCC)CC(O)CN(CCCCCCCC)CC(=O)O` (stereo not drawn) [Example 8, 6-butyl-4,8-dihydroxy-2,10-dioctyl-2,6,10-triaza-1,11-undecanedicarboxylicacid], the irritativeness result in data set [1] was “low”. On to `CCCCCCCCCCCCOS(=O)(=O)[O-].[Na+]` [Sodium dodecyl sulfate, reference compound], for which the CC50 at 48 h in data set [2] is 82 µg/mL. As for `CCCCCCCCCCCCN(CCOS(=O)(=O)O)CC(CN(CCCCCCCCCCCC)CC(CN(CCCCCCCCCCCC)CCOS(=O)(=O)O)OS(=O)(=O)O)OS(=O)(=O)O` (stereo not drawn) [Example 10, sodium 3,7,11-tridodecyl-3,7,11-triaza-1,5,9,13-tridecanetetrasulfate], the irritativeness entry in data set [1] was “low”. For the same molecule, in data set [2], the CC50 at 48 h was 790 µg/mL. For the molecule “6-butyl-4,8-dihydroxy-2,10-dioctyl-2,6,10-triaza-1,1,11,11-undecanetetracarboxylic acid [Example 12]”, the irritativeness result in data set [1] is “low”. Consider `CCCCCCCCCCCCN(CCOS(=O)(=O)O)CC(CN(CCCCCCCCCCCC)CC(CN(CCCCCCCCCCCC)CC(CN(CCCCCCCCCCCC)CC(CN(CCCCCCCCCCCC)CCOS(=O)(=O)O)OS(=O)(=O)O)OS(=O)(=O)O)OS(=O)(=O)O)OS(=O)(=O)O` (stereo not drawn) [Example 11, sodium 3,7,11,15,19-pentadodecyl-3,7,11,15,19-pentaaza-1,5,9,13,17,21-heneicosanehexasulfate], for which the irritativeness entry in data set [1] is reported as “low”. The IC50 in data set [3] is listed as over 1000 ppm. As for `CCCCCCCCN(CC(O)CN(CCCCCCCC)C(=O)CC(C(=O)O)S(=O)(=O)[O-])CC(O)CN(CCCCCCCC)C(=O)CC(C(=O)O)S(=O)(=O)[O-].[Na+].[Na+]` (stereo not drawn), the irritativeness result in data set [1] is given as “low”.

Source of the values: patent publication US5801270A, “Amine derivative and detergent composition containing the same” (Kao Corporation, priority 1993, dated 1998).
